Measured values published in patent US20060063930A1, “Compositions and methods comprising proteinase activated receptor antagonists” (priority 2004, published 2006).
Where a name gives a salt, the structure may show the parent alone. Where no end group is shown, it is not given here. [ ]: non-standard residue; d: D form. Nip = nipecotic acid residue; Orn = NCCC[C@H](N)C(=O)O; Dap = NC[C@H](N)C(=O)O

tested on: PAR-2; experiment: Inhibition of PAR-2 activating peptide (AP2) calcium signaling in cells pretreated with antagonist; assay type: cell-based, human; set-up: key to PAR-2 AP2 Signaling Treated/Control (T/C) / PAR-2 AP2 Signaling Treated/Control: AUC of calcium mobilization, treated ÷ control wells; settings: mimetic antagonists; AUC of calcium mobilization treated/control; initially screened at 1 mM compound
Method: In order to assess the potential of peptides and molecules selected above to block PAR-2 signaling, cells were pretreated with potential antagonist peptides for a predetermined amount of time and were subsequently treated with various GPCR agonists. Confluent Lewis lung carcinoma (LLC) cells were loaded for 30-60 minutes with the fluorescent dye Fluo-4. Final concentration 4 uM Fluo-4, 0.02% pluronic acid in physiological buffer. Cells were then washed with assay buffer, (HBSS containing 1 mM CaCl2, 1 mM MgSO4, and 2.5 mM probenecid). Cells were stimulated with various doses of PAR-2 activating peptide, PAR-1 activating peptide or ATP. Fluorescence was monitored using a Wallac 1470 fluorescent plate reader. (See Al-ani et. al Journal of Pharmacology and Experimental Therapeutics 290:2, 753-760). Additional compound screening was performed using U87-MG human glioma cells. In this assay cells were labeled with FLIPR Calcium 3 dye (Component A), which was dissolved in 10 mls of Assay Buffer without Probenecid. Loading buffer was prepared by diluting Component A with an additional 90 mls of Assay Buffer without Probenecid, giving a total volume of a 100 ml. For plate loading, 11 mls of FLIPR Calcium 3 dye (Component A) is placed into a 15 ml conical tube+110 μl of 250 mM Probenecid, at a final in-well working volume of 2.5 mM. Finally, 50 μl of Calcium 3 dye was added wells containing 100 μl media, and incubated 1 hr, 37° C., 5% CO2. Calcium signaling was then measured using a Flexstation II (Molecular Devices) following manufacturer's instructions.
Potential antagonist compounds were initially screened at 1 mM compound concentration. Those compounds with activity were then subjected to additional confirmatory testing. Activity is reported as treated/controlled (T/C) where the area under the curve (AUC) of calcium mobilization plots in treated wells is divided by the AUC of calcium mobilization plots in control wells to generate a measure of inhibition.

Row | Compound | PAR-2 AP2 Signaling Treated/Control
1 | CC(C)CC(=O)N1CC(NC(=O)CCCCCN)C1 [ENMD-1515, N-[1-(3-methylbutanoyl)azetidin-3-yl]-6-aminohexanamide] | 0.65
2 | N=C(N)NCCCCCC(=O)N1CCN(C(=O)CC2CCCCC2)CC1 [ENMD-1072, 4-(1-cyclohexylacetyl)piperazin-1-(5′-carbamoyl-pentylguanidine)] | 0.56
3 | CC(C)CC(=O)N1CC2CN(C(=O)CCCCCN)CC2C1 (stereo not shown) [ENMD-1764] | 0.96
4 | CCC(C)C(=O)N1CCN(C(=O)CCCCCN)CC1 (stereo not shown) [ENMD-1033, N′-[S-2-methylbutanoyl]-N^4-[6′-aminohexanoyl]-piperazine] | 0.28
5 | NCCCCOc1ccc(OCc2ccccc2)cc1 [ENMD-1566, 4-(4-(benzyloxy)phenoxy)butan-1-amine hydrochloride] | 0.01
6 | NCCCCCCNC(=O)C1CN(C(=O)CC2CCCCC2)CCO1 (stereo not shown) [ENMD-1521, 4-(2-Cyclohexyl-acetyl)-morpholine-2-carboxylic acid (6-amino-hexyl)-amide] | 1.01
7 | NCCCCCCNC(=O)c1ccc2nc(NCC3CCCCC3)[nH]c2c1 [ENMD-1526, 2-(Cyclohexylmethyl-amino)-3H-benzoimidazole-5-carboxylic acid (6-amino-hexyl)-amide] | 0.64
8 | CC(C)CNC(=O)c1ccc(OCCCN)cc1 [ENMD-1410, 4-(3-aminopropoxy)-N-isobutyl-benzamide] | 0.55
9 | CC(C)CCn1c(=O)n(CCc2ccc(N)cc2)c2ccccc21 [ENMD-1573, 1-(4-aminophenethyl)-3-isopentyl-1H-benzo[d]imidazole-2(3H)-one] | 0.01
10 | CC(C)CNc1ccc(C(=O)NCCCCN)cn1 [ENMD-1541] | 0.65
11 | CC(C)CNC(=O)c1ccc(NCCCCN)nc1 [ENMD-1562, 6-(4-aminobutylamine)-3-(isobutyl)-nicotinoyl amide] | 0.57
12 | Cl.O=C(CC1CCCCC1)N1CCN(C(=O)C2CCNCC2)CC1 [ENMD-1770, N^1-2-cyclohexylethanoyl-N-4-piperidine-4-carbonyl-piperazine hydrochloride] | 0.91
13 | CC(C)CCC(=O)N1CCN(C(=O)CCCCCN)CC1 [ENMD-1041, N^1-[4′-methylpentanoyl]-N^4-[6′-aminohexanoyl]-piperazine] | 0.17
14 | CC(C)COc1ccc(C(=O)NCCCN)cc1 [ENMD-1408, N-(3-aminopropyl)-4-isobutoxy-benzamide] | 0.35
15 | NCCCCCC(=O)N1CCN(C(=O)Cc2ccccc2)CC1 [ENMD-1078, N^1-(2-phenylethanoyl)-N^4-(6-aminohexanoyl)piperazine] | 0.42
16 | CC(C)CCc1ccc(C(=O)NCCCCN)cc1 [ENMD-1552, N-(4-aminobutyl)-4-isopentyl-benzamide] | 0.10
17 | NCCCCCC(=O)NC1CN(C(=O)CC2CCCCC2)C1 [ENMD-1513, N-[1-(2-cyclohexylacetyl)azetidin-3-yl]-6-aminohexanamide] | 0.97

Row | Compound | PAR-2 AP2 Signaling Treated/Control
18 | CCC(=O)N1CCN(C(=O)CCCCCN)CC1 [ENMD-1037, N′-propanoyl-N-4-[6′-aminohexanoyl]-piperazine] | 0.55
19 | NCCCCNC(=O)c1ccc(CCC2CCCCC2)cc1 [ENMD-1509, N-(4-aminobutyl)-4-(2-cyclohexylethyl)-benzamide] | 0.71
20 | CC(C)CNC(=O)c1cccn1CCCCCCN [ENMD-1569, 1-(6-aminohexyl)-2-[N′-isobutyl]-pyrrole carboxamide] | 0.77
21 | NCCCCCCN1C(C(=O)NCCC2CCCCC2)CCS1(=O)=O (stereo not shown) [ENMD-1545, N-(6-aminohexyl)isothiazolidine-1,1-dioxide-3-carboxylic acid (2-cyclohexyl)ethylamide] | 0.35
22 | O=C(Cc1cnc[nH]1)N1CCN(C(=O)CC2CCCCC2)CC1 [ENMD-1071, 1-(4-(2-(1H-imidazol-4-yl)acetyl)piperazin-1-yl)-1-cyclohexyl-acetamide hydrochloride] | 0.16
23 | CC(C)CC(=O)N1CCN(C(=O)Cc2ccc(N)cc2)CC1 [ENMD-1065, N^1-3-methylbutyryl-N^4-[2-(4-aminophenyl)-ethanoyl]-piperazine] | 0.34
24 | CC(C)CC(=O)NCCNC(=O)Cc1ccc(N)cc1.Cl [ENMD-1416, N-(2-(2-(4-aminophenyl)acetamido)ethyl)-3-methylbutan-amide hydrochloride] | 0.48
25 | COC(=O)CCCCC(=O)N1CCN(C(=O)CC(C)C)CC1 [ENMD-1402, Methyl 6-(4-(3-methylbutanoyl)piperazin-1-yl)-6-oxohexanoate] | 0.64
26 | CC(C)CCn1c(=O)n(CCc2ccc(NC(C)C)cc2)c2ccccc21 [ENMD-1563, 1-[4-(isopropylamine)-phenethyl]-3-isopentyl-1H-benzo[d]imidazole-2(3H)-one] | 0.62
27 | CC(C)CNC(=O)C1CN(C(=O)CCCCCN)CCO1 (stereo not shown) [ENMD-1524, 4-(6-Amino-hexanoyl)-morpholine-2-carboxylic acid isobutyl-amide] | 0.73
28 | CC(C)CC(=O)Nc1cc(C(=O)NCCCCCCN)n[nH]1 [ENMD-1550, 5-(3-methyl-butyrylamino)-1H-pyrazole-3-carboxylic acid (6-amino-hexyl)-amide] | 0.63
29 | CC[C@@H](C)C(=O)N1CCN(C(=O)CCCCCN)CC1 [ENMD-1034, N^1-[R-2-methylbutanoyl]-N^4-[6′-aminohexanoyl]-piperazine] | 0.39
30 | CC(C)CNC(=O)c1cc(CNC(=O)CCCCN)on1 [ENMD-1555, 5-[(5-amino-pentanoylamino)-methyl]-isoxazole-3-carboxylic acid isobutyl-amide] | 0.86
31 | Cl.NC1CCC(C(=O)Nc2ccc(NC(=O)CC3CCCCC3)cc2)C1 (stereo in doubt) [ENMD-1768, (1R,3S)-N-(4-(2-cyclohexylacetamido)phenyl)-3-aminocyclopentanecarboxamide hydrochloride] | 0.10
32 | NCCCCCC(=O)N1CC2CN(C(=O)CC3CCCCC3)CC2C1 (stereo not shown) [ENMD-1776] | 0.82
33 | NCCCCCNc1cnc(C(=O)NCC2CCCCC2)cn1 [ENMD-1775, cyclohexylmethyl-6-(5-aminopentaneamino)-2-pyrazine amide] | 0.90

same assay, conditions: mimetic antagonists; AUC of calcium mobilization treated/control; initially screened at 1 mM compound; hydrochloride

Row | Compound | PAR-2 AP2 Signaling Treated/Control
34 | CC(C)CC(=O)Nc1nc(CC(=O)NCCCCCN)cs1 [ENMD-1561, N-{4-[(5-Amino-pentylcarbamoyl)-methyl]-thiazol-2-yl}-3-methyl-butyramide hydrochloride] | 0.89

same assay, conditions: peptides; AUC of calcium mobilization treated/control; initially screened at 1 mM compound

Row | Compound | PAR-2 AP2 Signaling Treated/Control (T/C)
35 | LIG-Dap (LIG[Dap]) [ENMD-1027] | 0.30
36 | L-NiP-K (Leu-[Nip]-Lys) [ENMD-1058] | 1.58
37 | IG-Orn (Ile-Gly-[Orn]) [ENMD-1029] | 0.42
38 | LIPK [ENMD-1052] | 0.89
39 | LIGM [ENMD-1064] | 1.19
40 | LIG-dK (LIG[dK]) [ENMD-1384] | 0.16
